This is an account of results in article PMC5023172, “Preclinical Activity of ARQ 087, a Novel Inhibitor Targeting FGFR Dysregulation” (PLoS ONE, 2016).

The assay concerns Ba/F3-INSR xenograft. Briefly: Xenograft tumor growth inhibition. In kind it is in vivo, mice. The source says:
Six week old female NCr nu/nu mice (for SNU-16) or CB-17 SCID female mice (for NCI-H716 and BaF3 models) were purchased from Taconic Farms (Germantown, NY) and allowed to acclimate for greater than 2 weeks. Mice were housed in sterile micro isolator cages with 5 mice per cage and were received food and water ad libitum. Tumor cells were suspended in 50% Matrigel (lot# A9618-BD, Bioscience) and sterile Hanks Balanced Salt Solution (HBSS) for the NCI-H716 model or in HBSS alone for SNU-16. Each mouse was implanted subcutaneously with 5x10^6 cells (SNU-16) or 8x10^6 cells (NCI-H716) or 2x10^6 cells (BaF3) to the upper right flank area. Tumor measurements and body weights were collected two to three times per week with electronic calipers and balance. Tumor weight (mg) was calculated from the equation: length x (width)^2/2. This formula was used to calculate tumor volume assuming unit density 1 mg = 1 mm^3. Treatment was initiated when tumor burden was between 100–200 mgs. Percent inhibition or tumor growth inhibition (TGI) was calculated using the following formula: 100-[mean tumor value of treated / mean tumor value of control] x 100.
Plasma and tumor samples were collected 4 hours post single dose. […] Dosing volume for all groups was 10 mL/kg or 0.1 mL/10 g body weight.

With `CC[C@]1(O)C[C@@H]2CN(CCc3c([nH]c4ccccc34)[C@@](C(=O)OC)(c3cc4c(cc3OC)N(C)[C@H]3[C@@](O)(C(=O)OC)[C@H](OC(C)=O)[C@]5(CC)C=CCN6CC[C@]43[C@@H]65)C2)C1` [Vinblastine], the T/C was 100.48 (10 mg/kg IV Q5Dx2, Day 10); 42.10 (10 mg/kg IV Q5Dx2, Day 13); 37.24 (10 mg/kg IV Q5Dx2, Day 15); 11.60 (10 mg/kg IV Q5Dx2, Day 17); 2.84 (10 mg/kg IV Q5Dx2, Day 20). Moreover, the “Tumor Weights (mg), MEAN” value runs as follows: (10 mg/kg IV Q5Dx2, Day 10) 230.70 mg; (10 mg/kg IV Q5Dx2, Day 13) 256.70 mg; (10 mg/kg IV Q5Dx2, Day 15) 325.90 mg; (10 mg/kg IV Q5Dx2, Day 17) 196.60 mg; (10 mg/kg IV Q5Dx2, Day 20) 69.22 mg.
